These results are taken from ChEMBL document CHEMBL1157047, “Designing inhibitors against fructose 1,6-bisphosphatase: exploring natural products for novel inhibitor scaffolds” (Eur J Med Chem, 2010).

For orientation: IC50 means the midpoint of a concentration-inhibition curve.

In test [1] the target is T1, Fructose-1,6-bisphosphatase 1 (Sus scrofa, UniProt P00636).
T1 sequence (P00636 whole entry): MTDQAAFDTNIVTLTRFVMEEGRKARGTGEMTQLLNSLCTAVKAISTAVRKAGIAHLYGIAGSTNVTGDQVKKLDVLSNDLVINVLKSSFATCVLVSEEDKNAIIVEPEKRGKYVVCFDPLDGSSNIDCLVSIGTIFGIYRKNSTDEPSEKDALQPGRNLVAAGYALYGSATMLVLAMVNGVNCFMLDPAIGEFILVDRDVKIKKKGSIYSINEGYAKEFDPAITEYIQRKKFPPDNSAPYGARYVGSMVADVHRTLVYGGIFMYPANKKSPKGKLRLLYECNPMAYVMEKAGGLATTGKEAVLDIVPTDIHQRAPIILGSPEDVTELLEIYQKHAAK
Briefly: Inhibition of pig kidney fructose-1,6-bisphosphatase expressed in Escherichia coli BL21 (DE3) assessed as reduction of NADP+ to NADPH by phosphoglucose isomerase/glucose-6-phosphate dehydrogenase coupled assay.

In test [2] the target is T2, Fructose-1,6-bisphosphatase 1 (Homo sapiens, UniProt P09467).
T2 sequence (P09467 whole entry): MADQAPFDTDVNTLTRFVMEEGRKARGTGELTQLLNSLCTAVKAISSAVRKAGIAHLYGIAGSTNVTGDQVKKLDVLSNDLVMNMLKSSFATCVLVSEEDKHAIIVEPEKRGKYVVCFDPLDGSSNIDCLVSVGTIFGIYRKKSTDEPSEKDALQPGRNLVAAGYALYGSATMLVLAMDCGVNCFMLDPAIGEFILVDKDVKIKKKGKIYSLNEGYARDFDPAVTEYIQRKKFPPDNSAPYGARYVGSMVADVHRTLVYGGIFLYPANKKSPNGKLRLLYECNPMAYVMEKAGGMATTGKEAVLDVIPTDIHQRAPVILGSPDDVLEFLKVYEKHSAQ
The test is described as follows: Inhibition of human liver fructose-1,6-bisphosphatase expressed in Escherichia coli BL21 (DE3) assessed as reduction of NADP+ to NADPH by phosphoglucose isomerase/glucose-6-phosphate dehydrogenase coupled assay.

In the case of `Oc1cc(O)c2c(c1)oc1cc(O)cc(O)c12`, the half-inhibitory concentration (IC50) entry in test [1] and in test [2] was “Not Active” each time.
For `CC(=O)C1=C(O)C=C2Oc3c(C(C)=O)c(O)c(C)c(O)c3[C@@]2(C)C1=O` [(+)-USNIC ACID], the IC50 in test [2] (read-out: IC50) was 371 µM.
On to `Nc1ncnc2c1ncn2[C@@H]1O[C@H](COP(=O)(O)O)[C@@H](O)[C@H]1O` [ADENOSINE PHOSPHATE], for which the concentration for half-maximal inhibition (IC50) in test [2] (read-out: IC50) was 9.8 µM.
